Measured values as given in patent EP1247803A2, “Indolinone compounds suitable for modulation of protein kinases” (Sugen, Inc., priority 1996, dated 1998).

Experiments:
[1] = biological target: T1, EGFR (Homo sapiens, UniProt P00533); assay: EGFR ELISA assay (in vitro kinase activity, EGFR captured from A431 cell lysate); format: biochemical; set-up: concentration or dose not given beside the values
T1 construct: Add 7 ug A431 cell lysate per well (EGFR source); endogenous in cells; host or cells: A431
How it was run: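 EGFR from A431 lysate was captured on plates coated with anti-EGFR antibody. Compounds were added 30 min before a 5 min phosphorylation with 3 µM ATP/5 mM MnCl2, which was stopped with 20 mM EDTA. Phosphotyrosine was detected with rabbit anti-phosphotyrosine, then a peroxidase-conjugated secondary and ABTS/H2O2, read at 410 nm.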

[2] = tested on: MET; assay: MET biochemical kinase assay; set-up: species or system human; concentration or dose not given beside the values
How it was run: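 In this format, tyrosine phosphorylation of plate-captured human MET is followed in vitro after compound addition in ATP/divalent-cation buffer, detected by anti-phosphotyrosine-HRP with TMB substrate.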

T1 sequence (P00533 25-1210): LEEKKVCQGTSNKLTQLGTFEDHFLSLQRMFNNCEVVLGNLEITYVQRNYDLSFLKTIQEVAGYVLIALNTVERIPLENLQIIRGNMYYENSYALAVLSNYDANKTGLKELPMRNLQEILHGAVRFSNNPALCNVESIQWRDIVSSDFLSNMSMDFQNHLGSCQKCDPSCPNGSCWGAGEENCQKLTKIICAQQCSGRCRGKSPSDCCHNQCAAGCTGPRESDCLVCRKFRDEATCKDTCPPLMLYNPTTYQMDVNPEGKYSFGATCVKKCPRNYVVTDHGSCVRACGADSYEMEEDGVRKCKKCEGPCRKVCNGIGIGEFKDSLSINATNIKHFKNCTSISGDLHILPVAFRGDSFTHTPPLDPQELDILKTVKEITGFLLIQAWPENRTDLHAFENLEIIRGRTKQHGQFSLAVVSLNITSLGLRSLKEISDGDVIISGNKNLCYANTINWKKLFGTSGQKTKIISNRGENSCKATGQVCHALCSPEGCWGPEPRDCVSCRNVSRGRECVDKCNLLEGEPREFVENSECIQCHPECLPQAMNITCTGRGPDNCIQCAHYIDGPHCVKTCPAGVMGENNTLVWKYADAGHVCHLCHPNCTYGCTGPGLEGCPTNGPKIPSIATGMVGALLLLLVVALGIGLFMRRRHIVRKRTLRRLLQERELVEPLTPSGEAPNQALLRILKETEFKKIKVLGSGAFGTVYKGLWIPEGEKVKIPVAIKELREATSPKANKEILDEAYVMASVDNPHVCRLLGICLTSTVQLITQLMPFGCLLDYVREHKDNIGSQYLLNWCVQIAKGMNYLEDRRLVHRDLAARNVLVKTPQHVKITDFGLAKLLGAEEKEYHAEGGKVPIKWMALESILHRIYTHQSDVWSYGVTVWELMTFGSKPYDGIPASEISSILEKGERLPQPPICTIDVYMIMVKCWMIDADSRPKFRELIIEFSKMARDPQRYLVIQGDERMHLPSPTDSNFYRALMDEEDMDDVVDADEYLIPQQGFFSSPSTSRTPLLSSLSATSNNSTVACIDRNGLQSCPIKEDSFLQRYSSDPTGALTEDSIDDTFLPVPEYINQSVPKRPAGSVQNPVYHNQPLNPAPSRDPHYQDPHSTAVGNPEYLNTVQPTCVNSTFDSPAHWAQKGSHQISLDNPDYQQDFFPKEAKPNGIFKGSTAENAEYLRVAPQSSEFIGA

| SMILES | Biochem EGFR %Inhibition [1] | Met Kinase % Inhibition [2] |
| --- | --- | --- |
| CNS(=O)(=O)c1ccc2c(c1)C(=CC1CC(OC)OC1OC)C(=O)N2 (centres unmarked) [10730/D10] | 16.7% | 18.5% |
| CNS(=O)(=O)c1ccc2c(c1)C(=Cc1cc(C)c(C)o1)C(=O)N2 [10730/D11] | 2.0% | 9.7% |
| COc1ccc(C=C2C(=O)Nc3ccc(S(=O)(=O)Nc4ccc(C(F)(F)F)cc4)cc32)c(OC)c1OC [10730/E02] | 17.7% | 18.8% |
| COc1cc(OC)c(OC)cc1C=C1C(=O)Nc2ccc(S(=O)(=O)Nc3ccc(C(F)(F)F)cc3)cc21 [10730/E03] | 65.3% | 53.3% |
| COc1cc(C=C2C(=O)Nc3ccc(S(=O)(=O)Nc4ccc(C(F)(F)F)cc4)cc32)cc(OC)c1OC [10730/E04] | 13.5% | 35.2% |
| CC(=O)n1cc(C=C2C(=O)Nc3ccc(S(=O)(=O)Nc4ccc(C(F)(F)F)cc4)cc32)c2ccccc21 [10730/E05] | 15.8% | 49.0% |
| O=C1Nc2ccc(S(=O)(=O)Nc3ccc(C(F)(F)F)cc3)cc2C1=Cc1coc2ccc(Cl)cc2c1=O [10730/E06] | 1.5% | 52.8% |
| O=C1Nc2ccc(S(=O)(=O)Nc3ccc(C(F)(F)F)cc3)cc2C1=Cc1ccc(-c2ccccc2Cl)o1 [10730/E07] | 18.8% | 37.1% |
| O=C1Nc2ccc(S(=O)(=O)Nc3ccc(C(F)(F)F)cc3)cc2C1=Cc1cc2ccccc2nc1Cl [10730/E08] | 6.2% | 40.3% |
| O=C1Nc2ccc(S(=O)(=O)Nc3ccc(C(F)(F)F)cc3)cc2C1=Cc1coc2c(Br)cc(Br)cc2c1=O [10730/E09] | 21.7% | 33.9% |
| COC1CC(C=C2C(=O)Nc3ccc(S(=O)(=O)Nc4ccc(C(F)(F)F)cc4)cc32)C(OC)O1 (centres unmarked) [10730/E10] | 9.3% | 63.6% |
| Cc1cc(C=C2C(=O)Nc3ccc(S(=O)(=O)Nc4ccc(C(F)(F)F)cc4)cc32)oc1C [10730/E11] | 19.1% | 77.2% |
| COc1ccc(C=C2C(=O)Nc3ccc(S(=O)(=O)N4CCOCC4)cc32)c(OC)c1OC [10730/F02] | 2.9% | -6.2% |
| COc1cc(OC)c(OC)cc1C=C1C(=O)Nc2ccc(S(=O)(=O)N3CCOCC3)cc21 [10730/F03] | 10.4% | -0.6% |
| COc1cc(C=C2C(=O)Nc3ccc(S(=O)(=O)N4CCOCC4)cc32)cc(OC)c1OC [10730/F04] | -4.8% | 36.0% |
| CC(=O)n1cc(C=C2C(=O)Nc3ccc(S(=O)(=O)N4CCOCC4)cc32)c2ccccc21 [10730/F05] | -16.3% | 23.5% |
| O=C1Nc2ccc(S(=O)(=O)N3CCOCC3)cc2C1=Cc1coc2ccc(Cl)cc2c1=O [10730/F06] | -0.6% | 56.5% |
| O=C1Nc2ccc(S(=O)(=O)N3CCOCC3)cc2C1=Cc1ccc(-c2ccccc2Cl)o1 [10730/F07] | 27.3% | 60.7% |
| O=C1Nc2ccc(S(=O)(=O)N3CCOCC3)cc2C1=Cc1cc2ccccc2nc1Cl [10730/F08] | 0.8% | 46.4% |
